ChEMBL document CHEMBL1862790, “Optimisation of fenarimol series for the treatment of Chagas disease”

Legend:
Trypanosoma cruzi [1] = test: microbe, parasite or virus in culture; assay type: functional, organism-based, Tulahuen LacZ, Clone C4; conditions: Trypanosoma cruzi, Tulahuen LacZ, Clone C4
[2] = DNDI: Cytotoxicity against L-6 rat myoblasts from skeletal muscle cells; conditions: L6 rat skeletal muscle myoblast cells
Trypanosoma cruzi [3] = test: microbe, parasite or virus in culture; assay type: functional, Tulahuen LacZ, Clone C4; conditions: Trypanosoma cruzi, Tulahuen LacZ, Clone C4

Row | SMILES | IC50 (Trypanosoma cruzi [1]) | IC50 ([2]; IC50) | IC90 (Trypanosoma cruzi [3]) | IC50 [2]
1 | O=S(=O)(c1ccc(Cl)cc1)N1CCN(C(c2cncnc2)c2ccc(Cl)cc2F)CC1 (centres undefined) | 0.06 µM | > 100 µM | 0.11 µM | –
2 | O=C(NC1CCCC1)c1cccc(C(O)(c2ccc(Cl)cc2)c2cccnc2)c1 (centres undefined) | 0.15 µM | 60.8 µM | 0.32 µM | –
3 | O=S(=O)(NC1CCN(C(c2cnccn2)c2ccc(F)cc2F)CC1)c1ccccc1 (centres undefined) | 0.47 µM | 67.7 µM | 0.88 µM | –
4 | O=C(NC1CCN(C(c2cnccn2)c2ccc(F)cc2F)CC1)c1ccc(Cl)cc1 (centres undefined) | 0.27 µM | 66.9 µM | 0.76 µM | –
5 | O=S(=O)(c1ccc(C(F)(F)F)cc1)N1CCN(C(c2ccc(Cl)cc2)c2cccnc2)CC1 (centres undefined) | 0.055 µM | 51.4 µM | 0.18 µM | –
6 | CCS(=O)(=O)NC1CCN(C(c2cnccn2)c2ccc(F)cc2F)CC1 (centres undefined) | 1.89 µM | > 100 µM | 5.42 µM | –
7 | O=S(=O)(c1ccc(C(F)(F)F)cc1)N1CCC(NC(c2cnccn2)c2ccc(F)cc2F)CC1 (centres undefined) | 0.36 µM | 62.7 µM | 0.82 µM | –
8 | OC(c1ccc(Cl)cc1)(c1cccnc1)c1cnc(Cl)s1 (centres undefined) | 0.49 µM | > 100 µM | > 1 µM | –
9 | CC(C)CC(=O)NC1CCN(C(c2cnccn2)c2ccc(F)cc2F)CC1 (centres undefined) | > 1 µM | > 100 µM | > 1 µM | –
10 | O=S(=O)(c1ccc(C(F)(F)F)cc1)N1CCC(NC(c2ccc(C(F)(F)F)cc2)c2cnccn2)CC1 (centres undefined) | 0.13 µM | 40.9 µM | 0.29 µM | –
11 | O=C(NC1CCN(C(c2cnccn2)c2ccc(F)cc2F)CC1)c1ccc(C(F)(F)F)cc1 (centres undefined) | 0.46 µM | 63.6 µM | 0.9 µM | –
12 | CC(C)CS(=O)(=O)N1CCC(NC(c2cnccn2)c2ccc(F)cc2F)CC1 (centres undefined) | 0.56 µM | > 100 µM | 0.96 µM | –
13 | O=C(NC1CCCCC1)c1cccc(C(O)(c2ccc(Cl)cc2)c2cccnc2)c1 (centres undefined) | 0.06 µM | 52.3 µM | 0.21 µM | –
14 | CC(=O)NC1CCN(C(c2cnccn2)c2ccc(F)cc2F)CC1 (centres undefined) | > 1 µM | > 100 µM | > 1 µM | –
15 | CC(C)CNC(=O)c1cccc(C(O)(c2ccc(Cl)cc2)c2cccnc2)c1 (centres undefined) | 0.098 µM | 60.5 µM | 0.3 µM | –
16 | CON(C)C(=O)c1cccc(C(O)(c2ccc(Cl)cc2)c2cccnc2)c1 (centres undefined) | 0.038 µM | > 100 µM | 0.13 µM | –
17 | O=S(=O)(c1ccc(Cl)cc1)N1CCC(NC(c2cnccn2)c2ccc(F)cc2F)CC1 (centres undefined) | 0.53 µM | 77.9 µM | 0.9 µM | –
18 | O=C(c1ccccc1)N1CCN(C(c2cncnc2)c2ccc(Cl)cc2F)CC1 (centres undefined) | 0.22 µM | > 100 µM | 0.58 µM | –
19 | O=C(Cc1ccccc1)N1CCN(C(c2ccc(Cl)cc2)c2cncnc2)CC1 (centres undefined) | 0.5 µM | – | 0.85 µM | 69.5 µM
20 | O=S(=O)(NC1CCN(C(c2cnccn2)c2ccc(F)cc2F)CC1)c1ccc(Cl)cc1 (centres undefined) | > 1 µM | 34.3 µM | > 1 µM | –
21 | CNC(=O)c1cccc(C(O)(c2ccc(Cl)cc2)c2cccnc2)c1 (centres undefined) | 0.59 µM | > 100 µM | 0.995 µM | –
22 | CCC(=O)NC1CCN(C(c2cnccn2)c2ccc(F)cc2F)CC1 (centres undefined) | > 1 µM | > 100 µM | > 1 µM | –
23 | CC(C)S(=O)(=O)N1CCN(C(c2ccc(Cl)cc2)c2cccnc2)CC1 (centres undefined) | 0.028 µM | > 100 µM | 0.088 µM | –
24 | CC(C)S(=O)(=O)N1CCC(NC(c2cnccn2)c2ccc(F)cc2F)CC1 (centres undefined) | 0.34 µM | > 100 µM | 0.79 µM | –
25 | O=C(NC1CCN(C(c2cnccn2)c2ccc(F)cc2F)CC1)c1ccccc1 (centres undefined) | 0.55 µM | > 100 µM | 0.93 µM | –
26 | O=C(NC1CCN(C(c2cnccn2)c2ccc(F)cc2F)CC1)C1CC1 (centres undefined) | > 1 µM | > 100 µM | > 1 µM | –
27 | CC(C)CS(=O)(=O)NC1CCN(C(c2cnccn2)c2ccc(F)cc2F)CC1 (centres undefined) | 0.75 µM | > 100 µM | 3.54 µM | –

Row | SMILES | IC50 (Trypanosoma cruzi [1]) | IC50 ([2]; IC50) | IC90 (Trypanosoma cruzi [3]) | IC50 [2]
28 | CN(C)C(=O)N1CCN(C(c2ccc(Cl)cc2)c2cncnc2)CC1 (centres undefined) | 0.62 µM | > 100 µM | > 1 µM | –
29 | O=C(Cc1ccccc1)NC1CCN(C(c2cnccn2)c2ccc(F)cc2F)CC1 (centres undefined) | 0.7 µM | > 100 µM | > 1 µM | –
30 | O=S(=O)(Cc1ccccc1)NC1CCN(C(c2cnccn2)c2ccc(F)cc2F)CC1 (centres undefined) | 0.72 µM | > 100 µM | > 1 µM | –
31 | CCS(=O)(=O)N1CCC(NC(c2ccc(C(F)(F)F)cc2)c2cnccn2)CC1 (centres undefined) | 0.49 µM | > 100 µM | 0.88 µM | –
32 | O=S(=O)(Cc1ccccc1)N1CCN(C(c2ccc(Cl)cc2)c2cccnc2)CC1 (centres undefined) | 0.032 µM | 57.7 µM | 0.14 µM | –
33 | CC(C)S(=O)(=O)NC1CCN(C(c2ccc(C(F)(F)F)cc2)c2cnccn2)CC1 (centres undefined) | 0.56 µM | > 100 µM | 0.94 µM | –
34 | O=C(C1CCCCC1)N1CCN(C(c2cncnc2)c2ccc(Cl)cc2F)CC1 (centres undefined) | 0.15 µM | > 100 µM | 0.3 µM | –
35 | O=C(c1ccc(C(F)(F)F)cc1)N1CCN(C(c2ccc(Cl)cc2)c2cncnc2)CC1 (centres undefined) | 0.15 µM | 54.1 µM | 0.32 µM | –
36 | CC(C)c1ccc(S(=O)(=O)NC2CCN(C(c3cnccn3)c3ccc(F)cc3F)CC2)cc1 (centres undefined) | 0.85 µM | 25.5 µM | > 1 µM | –
37 | CC(C)CC(=O)N1CCN(C(c2ccc(Cl)cc2)c2cncnc2)CC1 (centres undefined) | 0.43 µM | > 100 µM | 0.91 µM | –
38 | CC(C)CS(=O)(=O)N1CCN(C(c2ccc(Cl)cc2)c2cncnc2)CC1 (centres undefined) | 0.062 µM | 92.7 µM | 0.2 µM | –
39 | CC(C)N(C(=O)c1cccc(C(O)(c2ccc(Cl)cc2)c2cccnc2)c1)C(C)C (centres undefined) | 0.014 µM | 54.7 µM | 0.056 µM | –
40 | O=S(=O)(NC1CCN(C(c2cnccn2)c2ccc(F)cc2F)CC1)c1ccc(C(F)(F)F)cc1 (centres undefined) | > 1 µM | 29.4 µM | > 1 µM | –
41 | CS(=O)(=O)NC1CCN(C(c2cnccn2)c2ccc(F)cc2F)CC1 (centres undefined) | 1.38 µM | > 100 µM | 4.98 µM | –
42 | O=C(NCCN1CCOCC1)c1cccc(C(O)(c2ccc(Cl)cc2)c2cccnc2)c1 (centres undefined) | 0.5 µM | > 100 µM | 0.95 µM | –
43 | O=C(c1cccc(C(O)(c2ccc(Cl)cc2)c2cccnc2)c1)N1CCOCC1 (centres undefined) | 0.034 µM | > 100 µM | 0.12 µM | –
44 | CC(C)c1ccc(S(=O)(=O)N2CCN(C(c3ccc(Cl)cc3)c3cncnc3)CC2)cc1 (centres undefined) | 0.024 µM | 46.1 µM | 0.078 µM | –
45 | O=C(NC1CCN(C(c2cnccn2)c2ccc(F)cc2F)CC1)C1CCCCC1 (centres undefined) | 0.8 µM | > 100 µM | > 1 µM | –
46 | O=C(c1ccccc1)N1CCN(C(c2ccc(Cl)cc2)c2cncnc2)CC1 (centres undefined) | 0.5 µM | 75.5 µM | 0.95 µM | –
47 | O=S(=O)(NC1CCN(C(c2ccc(C(F)(F)F)cc2)c2cnccn2)CC1)C1CCCCC1 (centres undefined) | 0.28 µM | 57.9 µM | 0.78 µM | –
48 | O=S(=O)(Cc1ccccc1)N1CCC(NC(c2cnccn2)c2ccc(F)cc2F)CC1 (centres undefined) | 0.19 µM | > 100 µM | 0.4 µM | –
49 | CCS(=O)(=O)NC1CCN(C(c2ccc(C(F)(F)F)cc2)c2cnccn2)CC1 (centres undefined) | 1.14 µM | > 100 µM | 6.47 µM | –
50 | CC(C)c1ccc(S(=O)(=O)N2CCC(NC(c3ccc(C(F)(F)F)cc3)c3cnccn3)CC2)cc1 (centres undefined) | 0.1 µM | 22 µM | 0.27 µM | –
51 | CC(C)S(=O)(=O)N1CCC(NC(c2ccc(C(F)(F)F)cc2)c2cnccn2)CC1 (centres undefined) | 0.22 µM | > 100 µM | 0.57 µM | –
52 | CC(C)S(=O)(=O)N1CCN(C(c2cncnc2)c2ccc(Cl)cc2F)CC1 (centres undefined) | 0.12 µM | > 100 µM | 0.33 µM | –
53 | CN(C)C(=O)NC1CCN(C(c2cnccn2)c2ccc(F)cc2F)CC1 (centres undefined) | > 1 µM | > 100 µM | > 1 µM | –
